Source: paper PMC6941823, “A dispensable paralog of succinate dehydrogenase subunit C mediates standing resistance towards a subclass of SDHI fungicides in Zymoseptoria tritici” (PLoS Pathogens, 2019)

target: SQR of 06STD024 (SDHC / altC) mitochondria (Zymoseptoria tritici, UniProt A0A1X7RQW2+F9X9V6+F9XH52+O42772); experiment: Succinate-quinone (SQR) SDHI sensitivity assay on purified mitochondria, 06STD024; assay type: biochemical; conditions: IC50 ratio compared to IPO323 values
Protocol: (§1) Succinate-ubiquinone oxidoreductase (SQR) inhibition assays were performed on mitochondrial extracts from a panel of strains that were (i) either carrying a unique C-subunit encoding gene (ZtSDHC1, ZtSDHC1_A84I or Zt-SDHC3), or (ii) carrying two C-subunit encoding genes ZtSDHC1 and ZtSDHC3 (Table 1).
(§2) Biomass production, mitochondrial extraction and purification were performed as described in [14]. Succinate: ubiquinone/DCPIP sensitivity tests were performed as described in [14] with minor modification.

Sequence of SQR of 06STD024 (SDHC / altC) mitochondria (A0A1X7RQW2 36-181): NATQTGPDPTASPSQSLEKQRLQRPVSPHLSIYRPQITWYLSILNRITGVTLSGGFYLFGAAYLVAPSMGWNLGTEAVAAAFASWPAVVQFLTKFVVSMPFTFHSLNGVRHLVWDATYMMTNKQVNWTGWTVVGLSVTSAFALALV
Sequence of SQR of 06STD024 (SDHC / altC) mitochondria (O42772 19-297): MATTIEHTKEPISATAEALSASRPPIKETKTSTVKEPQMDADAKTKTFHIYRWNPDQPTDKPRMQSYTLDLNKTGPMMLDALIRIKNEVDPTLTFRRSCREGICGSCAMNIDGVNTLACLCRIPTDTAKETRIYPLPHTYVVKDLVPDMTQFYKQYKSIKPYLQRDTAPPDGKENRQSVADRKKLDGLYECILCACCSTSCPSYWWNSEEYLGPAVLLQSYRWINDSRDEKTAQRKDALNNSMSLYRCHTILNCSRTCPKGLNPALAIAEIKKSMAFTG
Sequence of SQR of 06STD024 (SDHC / altC) mitochondria (F9X9V6 1-193): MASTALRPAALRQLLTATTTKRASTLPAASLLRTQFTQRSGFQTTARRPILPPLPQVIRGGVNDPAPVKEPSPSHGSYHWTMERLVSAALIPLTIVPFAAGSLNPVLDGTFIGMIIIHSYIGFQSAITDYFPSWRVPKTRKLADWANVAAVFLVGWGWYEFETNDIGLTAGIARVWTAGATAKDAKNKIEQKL
Sequence of SQR of 06STD024 (SDHC / altC) mitochondria (F9XH52 44-187): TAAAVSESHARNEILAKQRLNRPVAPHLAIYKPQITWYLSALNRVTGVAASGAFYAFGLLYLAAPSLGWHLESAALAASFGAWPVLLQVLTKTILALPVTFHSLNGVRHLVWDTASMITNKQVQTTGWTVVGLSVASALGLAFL
Sequence of SQR of 06STD024 (SDHC / altC) mitochondria (F9WWR1 29-643 partner): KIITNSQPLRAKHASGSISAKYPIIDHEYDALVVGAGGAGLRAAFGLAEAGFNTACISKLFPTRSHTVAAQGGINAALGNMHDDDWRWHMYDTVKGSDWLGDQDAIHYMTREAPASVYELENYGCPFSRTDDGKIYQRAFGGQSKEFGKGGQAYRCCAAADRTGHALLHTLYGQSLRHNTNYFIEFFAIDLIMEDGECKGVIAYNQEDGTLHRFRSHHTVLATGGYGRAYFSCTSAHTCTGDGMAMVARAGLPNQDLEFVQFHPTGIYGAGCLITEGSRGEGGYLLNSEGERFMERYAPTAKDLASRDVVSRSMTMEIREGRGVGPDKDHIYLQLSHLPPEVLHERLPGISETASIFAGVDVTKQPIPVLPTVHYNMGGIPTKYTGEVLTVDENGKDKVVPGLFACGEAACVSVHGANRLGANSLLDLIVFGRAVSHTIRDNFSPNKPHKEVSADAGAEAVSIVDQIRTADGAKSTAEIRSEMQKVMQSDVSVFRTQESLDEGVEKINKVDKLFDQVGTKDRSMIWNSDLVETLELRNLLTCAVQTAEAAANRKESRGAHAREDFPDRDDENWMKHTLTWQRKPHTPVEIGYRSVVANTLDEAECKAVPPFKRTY

Question: `Cn1cc(C(=O)Nc2ccc(F)cc2-c2ccc(Cl)c(Cl)c2)c(C(F)F)n1` [Bixafen] was tested. Which “RF (resistance factor), 06STD024 (SDHC / altC)” value did it give?
Answer: 1.3

same assay, conditions: mitochondria of field isolate 06STD024; mean of three ± SD

Question: Which IC50 does the source give for `Cn1cc(C(=O)Nc2ccc(F)cc2-c2ccc(Cl)c(Cl)c2)c(C(F)F)n1` [Bixafen] here?
Answer: 1.8 ± 0.7 nM

tested on: SQR (SDHC / altC) of IPO323 pTet::SDHC3 transformant, induced; experiment: Succinate-quinone (SQR) SDHI sensitivity assay on purified mitochondria, IPO323 pTet::SDHC3 induced; assay type: biochemical, Zymoseptoria tritici; conditions: IC50 ratio compared to IPO323 values
Protocol: as §1, §2

Question: How did the “RF (resistance factor), pTet Induced (SDHC / altC)” value turn out when `Cn1cc(C(=O)Nc2ccc(F)cc2-c2ccc(Cl)c(Cl)c2)c(C(F)F)n1` [Bixafen] was run?
Answer: 1.3

same assay, conditions: IPO323 pTet::SDHC3 transformant grown in the absence of doxycycline; mean of three ± SD

Question: With `Cn1cc(C(=O)Nc2ccc(F)cc2-c2ccc(Cl)c(Cl)c2)c(C(F)F)n1` [Bixafen] as the compound, how does the IC50 read?
Answer: 1.8 ± 0.4 nM

target: altC-SQR (altC) of D024 SDHC1 KO mitochondria (Zymoseptoria tritici, UniProt A0A1X7RQW2+F9X9V6+O42772); experiment: Succinate-quinone (SQR) SDHI sensitivity assay on purified mitochondria, 06STD024 SDHC1 KO; assay type: biochemical; conditions: IC50 ratio compared to IPO323 values
Sequence (A0A1X7RQW2 36-181): as the sequence (A0A1X7RQW2 36-181) above
Sequence (O42772 20-297): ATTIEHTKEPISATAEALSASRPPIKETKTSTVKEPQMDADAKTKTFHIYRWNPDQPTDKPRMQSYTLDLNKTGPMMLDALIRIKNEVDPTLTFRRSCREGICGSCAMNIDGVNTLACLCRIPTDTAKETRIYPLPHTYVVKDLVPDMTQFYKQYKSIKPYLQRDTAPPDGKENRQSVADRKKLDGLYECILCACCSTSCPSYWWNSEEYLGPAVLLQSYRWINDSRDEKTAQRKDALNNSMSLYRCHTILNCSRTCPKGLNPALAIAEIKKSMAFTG
Sequence (F9X9V6 1-193): as the sequence (F9X9V6 1-193) above
Sequence (F9WWR1 41-643 partner): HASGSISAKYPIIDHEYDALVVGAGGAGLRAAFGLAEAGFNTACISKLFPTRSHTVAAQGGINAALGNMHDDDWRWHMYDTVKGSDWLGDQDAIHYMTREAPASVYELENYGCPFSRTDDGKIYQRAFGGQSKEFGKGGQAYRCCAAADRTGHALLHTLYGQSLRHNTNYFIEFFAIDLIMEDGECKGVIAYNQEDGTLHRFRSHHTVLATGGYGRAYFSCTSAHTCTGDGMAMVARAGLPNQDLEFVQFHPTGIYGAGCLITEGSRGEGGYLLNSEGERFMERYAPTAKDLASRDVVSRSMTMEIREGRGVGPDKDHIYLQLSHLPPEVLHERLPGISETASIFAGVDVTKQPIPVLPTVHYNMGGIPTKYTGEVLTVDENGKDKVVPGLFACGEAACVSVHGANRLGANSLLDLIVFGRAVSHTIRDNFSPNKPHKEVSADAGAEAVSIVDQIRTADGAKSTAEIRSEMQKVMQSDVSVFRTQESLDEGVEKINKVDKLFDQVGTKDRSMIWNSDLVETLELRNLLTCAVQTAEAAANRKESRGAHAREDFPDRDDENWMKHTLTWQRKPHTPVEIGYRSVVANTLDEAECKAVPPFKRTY
Protocol: as §1, §2

Question: `Cn1cc(C(=O)Nc2ccc(F)cc2-c2ccc(Cl)c(Cl)c2)c(C(F)F)n1` [Bixafen] was tested. Which “RF (resistance factor), D024 SDHC1 KO (altC)” value did it give?
Answer: 1.5

same assay, conditions: mitochondria of 06STD024 ZtSDHC1 deletion mutant (pure altC-SQR); mean of three ± SD

Question: Which IC50 does the source give for `Cn1cc(C(=O)Nc2ccc(F)cc2-c2ccc(Cl)c(Cl)c2)c(C(F)F)n1` [Bixafen] here?
Answer: 2.1 ± 0.6 nM

target: WT-SQR (SDHC), IPO323 mitochondria (Zymoseptoria tritici, UniProt F9X9V6+F9XH52+O42772); experiment: Succinate-quinone (SQR) SDHI sensitivity assay on purified mitochondria, IPO323; assay type: biochemical; conditions: mitochondria of IPO323; mean of three determinations ± SD; read-out: Succinate-quinone IC50, IPO323 (SDHC)
Protocol: as §1
(§3) Biomass production, mitochondrial extraction and purification were performed as described in [14]. Succinate: ubiquinone/DCPIP sensitivity tests were performed as described in [14] with minor modification. The different mitochondrial suspensions were adjusted to similar initial velocity (1 OD595nm hour^-1) and inhibitor concentrations ranged between 0.047nM and 50μM with uniform 4x dilution steps (11 concentrations + DMSO control). Calculated absorbance slopes (OD/min) were used for IC50 calculations using GraphPad Prism 6.07 software non-linear curve fitting against log inhibitor concentrations.

Question: Which IC50 does the source give for `Cn1cc(C(=O)Nc2ccc(F)cc2-c2ccc(Cl)c(Cl)c2)c(C(F)F)n1` [Bixafen] here?
Answer: 1.4 ± 0.1 nM

tested on: Zymoseptoria tritici field and genetically modified strains; experiment: Liquid culture assay for fungicide sensitivity determination; assay type: cell-based; conditions: strain 06STD024; liquid culture sensitivity; read-out: EC50 (nM) Mean
Protocol: Sensitivity towards commercial fungicides was determined for a set of 99 SHA-SDHI-naïve Z. tritici field isolates sampled in Europe between 2006 and 2009. The EC50 of these isolates was determined in liquid growth assays and the data obtained compared for each possible pair of SDHI fungicides (cross-resistance (XR) plots, Fig 1). […] Comparative succinate-quinone reductase (SQR) enzyme inhibition tests were performed with mitochondria extracted from a panel of SHA-SDHIs tolerant and sensitive isolates.
In order to characterize in more depth the mechanisms driving sensitivity differences across the isolates, a subset of eight isolates carrying the ZtSDHC3 gene was analyzed for their sensitivity to SDHIs, alt-SDHC expression and splicing patterns. Liquid culture growth sensitivity tests were performed to determine EC50s for this set of isolates towards a wide range of commercial and research SDHIs (S5 Table).
Pre-culture of the inoculum and fungicide sensitivity tests were performed following previously described procedures. Different ranges of inhibitor concentrations were used for population monitoring and for the detailed phenotyping of a selected set of individual field isolates and genetically modified strains. For fungicide sensitivity monitoring of European field populations, final inhibitors concentrations were between 100 mg.L^-1 and 0.0001 mg.L^-1 with uniform 10x dilution steps (7 inhibitor concentrations + DMSO control). For refined sensitivity analysis of a smaller panel of isolates final inhibitor concentrations ranged between 0.5 mM and 0.47 nM with uniform 4x dilution factor steps (11 inhibitor concentrations+ DMSO control).

Question: With `Cn1cc(C(=O)Nc2ccc(F)cc2-c2ccc(Cl)c(Cl)c2)c(C(F)F)n1` [Bixafen] as the compound, how does the EC50 read?
Answer: 83.8 nM

same assay, conditions: strain 07STGB009; liquid culture sensitivity; read-out: EC50 (nM) Mean

Question: For `Cn1cc(C(=O)Nc2ccc(F)cc2-c2ccc(Cl)c(Cl)c2)c(C(F)F)n1` [Bixafen], which EC50 is on record?
Answer: 102 nM

same assay, conditions: strain 09STD041; liquid culture sensitivity; read-out: EC50 (nM) Mean

Question: `Cn1cc(C(=O)Nc2ccc(F)cc2-c2ccc(Cl)c(Cl)c2)c(C(F)F)n1` [Bixafen] was tested. Which EC50 did it give?
Answer: 219 nM

same assay, conditions: strain 09STD053; liquid culture sensitivity; read-out: EC50 (nM) Mean

Question: For `Cn1cc(C(=O)Nc2ccc(F)cc2-c2ccc(Cl)c(Cl)c2)c(C(F)F)n1` [Bixafen], which EC50 is on record?
Answer: 102 nM

same assay, conditions: strain 09STF011; liquid culture sensitivity; read-out: EC50 (nM) Mean

Question: For `Cn1cc(C(=O)Nc2ccc(F)cc2-c2ccc(Cl)c(Cl)c2)c(C(F)F)n1` [Bixafen], which EC50 is on record?
Answer: 70.1 nM

same assay, conditions: strain 09STF037; liquid culture sensitivity; read-out: EC50 (nM) Mean

Question: With `Cn1cc(C(=O)Nc2ccc(F)cc2-c2ccc(Cl)c(Cl)c2)c(C(F)F)n1` [Bixafen] as the compound, how does the EC50 read?
Answer: 111 nM

same assay, conditions: strain 09STF112; liquid culture sensitivity; read-out: EC50 (nM) Mean

Question: For `Cn1cc(C(=O)Nc2ccc(F)cc2-c2ccc(Cl)c(Cl)c2)c(C(F)F)n1` [Bixafen], which EC50 is on record?
Answer: 171 nM

same assay, conditions: strain 09STIR20.3; liquid culture sensitivity; read-out: EC50 (nM) Mean

Question: With `Cn1cc(C(=O)Nc2ccc(F)cc2-c2ccc(Cl)c(Cl)c2)c(C(F)F)n1` [Bixafen] as the compound, how does the EC50 read?
Answer: 204 nM

same assay, conditions: strain Flu21 (SDHC1_A84I); liquid culture sensitivity; read-out: EC50 (nM) Mean

Question: For `Cn1cc(C(=O)Nc2ccc(F)cc2-c2ccc(Cl)c(Cl)c2)c(C(F)F)n1` [Bixafen], which EC50 is on record?
Answer: 959 nM

same assay, conditions: strain IPO323; liquid culture sensitivity; read-out: EC50 (nM) Mean

Question: `Cn1cc(C(=O)Nc2ccc(F)cc2-c2ccc(Cl)c(Cl)c2)c(C(F)F)n1` [Bixafen] was tested. Which EC50 did it give?
Answer: 106 nM

same assay, conditions: strain IPO94269; liquid culture sensitivity; read-out: EC50 (nM) Mean

Question: For `Cn1cc(C(=O)Nc2ccc(F)cc2-c2ccc(Cl)c(Cl)c2)c(C(F)F)n1` [Bixafen], which EC50 is on record?
Answer: 109 nM

same assay, conditions: strain KO_SDHC1_T1; liquid culture sensitivity; read-out: EC50 (nM) Mean

Question: How did the EC50 turn out when `Cn1cc(C(=O)Nc2ccc(F)cc2-c2ccc(Cl)c(Cl)c2)c(C(F)F)n1` [Bixafen] was run?
Answer: 710 nM

same assay, conditions: strain KO_SDHC1_T3; liquid culture sensitivity; read-out: EC50 (nM) Mean

Question: Which EC50 does the source give for `Cn1cc(C(=O)Nc2ccc(F)cc2-c2ccc(Cl)c(Cl)c2)c(C(F)F)n1` [Bixafen] here?
Answer: 447 nM

same assay, conditions: strain KO_SDHC3_T4; liquid culture sensitivity; read-out: EC50 (nM) Mean

Question: Which EC50 does the source give for `Cn1cc(C(=O)Nc2ccc(F)cc2-c2ccc(Cl)c(Cl)c2)c(C(F)F)n1` [Bixafen] here?
Answer: 204 nM

same assay, conditions: strain KO_SDHC3_T13; liquid culture sensitivity; read-out: EC50 (nM) Mean

Question: With `Cn1cc(C(=O)Nc2ccc(F)cc2-c2ccc(Cl)c(Cl)c2)c(C(F)F)n1` [Bixafen] as the compound, how does the EC50 read?
Answer: 180 nM

same assay, conditions: strain pTet::SDHC3_I78A_T1; liquid culture sensitivity; read-out: EC50 (nM) Mean

Question: `Cn1cc(C(=O)Nc2ccc(F)cc2-c2ccc(Cl)c(Cl)c2)c(C(F)F)n1` [Bixafen] was tested. Which EC50 did it give?
Answer: 94.3 nM

same assay, conditions: strain pTet::SDHC3_I78A_T5; liquid culture sensitivity; read-out: EC50 (nM) Mean

Question: Which EC50 does the source give for `Cn1cc(C(=O)Nc2ccc(F)cc2-c2ccc(Cl)c(Cl)c2)c(C(F)F)n1` [Bixafen] here?
Answer: 174 nM

same assay, conditions: strain pTet::SDHC3_I78A_T15; liquid culture sensitivity; read-out: EC50 (nM) Mean

Question: For `Cn1cc(C(=O)Nc2ccc(F)cc2-c2ccc(Cl)c(Cl)c2)c(C(F)F)n1` [Bixafen], which EC50 is on record?
Answer: 104 nM

same assay, conditions: strain pTet::SDHC3_I78A_T35; liquid culture sensitivity; read-out: EC50 (nM) Mean

Question: Which EC50 does the source give for `Cn1cc(C(=O)Nc2ccc(F)cc2-c2ccc(Cl)c(Cl)c2)c(C(F)F)n1` [Bixafen] here?
Answer: 27.7 nM

same assay, conditions: strain pTet::SDHC3_T1; liquid culture sensitivity; read-out: EC50 (nM) Mean

Question: Which EC50 does the source give for `Cn1cc(C(=O)Nc2ccc(F)cc2-c2ccc(Cl)c(Cl)c2)c(C(F)F)n1` [Bixafen] here?
Answer: 141 nM

same assay, conditions: strain pTet::SDHC3_T2; liquid culture sensitivity; read-out: EC50 (nM) Mean

Question: `Cn1cc(C(=O)Nc2ccc(F)cc2-c2ccc(Cl)c(Cl)c2)c(C(F)F)n1` [Bixafen] was tested. Which EC50 did it give?
Answer: 185 nM

same assay, conditions: strain pTet::SDHC3_T3; liquid culture sensitivity; read-out: EC50 (nM) Mean

Question: Which EC50 does the source give for `Cn1cc(C(=O)Nc2ccc(F)cc2-c2ccc(Cl)c(Cl)c2)c(C(F)F)n1` [Bixafen] here?
Answer: 120 nM

same assay, conditions: strain pTet::SDHC3_T7; liquid culture sensitivity; read-out: EC50 (nM) Mean

Question: `Cn1cc(C(=O)Nc2ccc(F)cc2-c2ccc(Cl)c(Cl)c2)c(C(F)F)n1` [Bixafen] was tested. Which EC50 did it give?
Answer: 192 nM

target: SQR (SDHC / altC) of IPO323 pTet::SDHC3 transformant, repressed (Zymoseptoria tritici, UniProt A0A1X7RQW2+F9X9V6+F9XH52+O42772); experiment: Succinate-quinone (SQR) SDHI sensitivity assay on purified mitochondria, IPO323 pTet::SDHC3 repressed; assay type: biochemical; conditions: IC50 ratio compared to IPO323 values
Sequence (F9XH52 44-187): as the sequence (F9XH52 44-187) above
Sequence (O42772 20-297): as the sequence (O42772 20-297) above
Sequence (F9X9V6 1-193): as the sequence (F9X9V6 1-193) above
Sequence (A0A1X7RQW2 36-181): as the sequence (A0A1X7RQW2 36-181) above
Sequence (F9WWR1 41-643 partner): as the sequence (F9WWR1 41-643 partner) above
Protocol: as §1, §2

Question: `Cn1cc(C(=O)Nc2ccc(F)cc2-c2ccc(Cl)c(Cl)c2)c(C(F)F)n1` [Bixafen] was tested. Which “RF (resistance factor), pTet Repressed (SDHC / altC)” value did it give?
Answer: 1.1

same assay, conditions: IPO323 pTet::SDHC3 transformant grown in presence of 30 mg.L^-1 doxycycline; mean of three ± SD

Question: Which IC50 does the source give for `Cn1cc(C(=O)Nc2ccc(F)cc2-c2ccc(Cl)c(Cl)c2)c(C(F)F)n1` [Bixafen] here?
Answer: 1.5 ± 0.6 nM

target: C_A84I-SQR (SDHC_A84I), IPO323_Flu21 mitochondria (Zymoseptoria tritici, UniProt F9X9V6+F9XH52+O42772, A84I); experiment: Succinate-quinone (SQR) SDHI sensitivity assay on purified mitochondria, IPO323_Flu21; assay type: biochemical; conditions: IC50 ratio compared to IPO323 values
Protocol: as §1, §3

Question: For `Cn1cc(C(=O)Nc2ccc(F)cc2-c2ccc(Cl)c(Cl)c2)c(C(F)F)n1` [Bixafen], which “RF (resistance factor), IPO323_Flu21 (SDHC_A84I)” value is on record?
Answer: 2.3

same assay, conditions: mitochondria of UV mutant IPO323_Flu21; mean of three ± SD

Question: For `Cn1cc(C(=O)Nc2ccc(F)cc2-c2ccc(Cl)c(Cl)c2)c(C(F)F)n1` [Bixafen], which IC50 is on record?
Answer: 3.2 ± 0.5 nM

target: SQR (SDHC) of D024 SDHC3 KO mitochondria (Zymoseptoria tritici, UniProt F9X9V6+F9XH52+O42772); experiment: Succinate-quinone (SQR) SDHI sensitivity assay on purified mitochondria, 06STD024 SDHC3 KO; assay type: biochemical; conditions: IC50 ratio compared to IPO323 values
Protocol: as §1, §3

Question: `Cn1cc(C(=O)Nc2ccc(F)cc2-c2ccc(Cl)c(Cl)c2)c(C(F)F)n1` [Bixafen] was tested. Which “RF (resistance factor), D024 SDHC3 KO (SDHC)” value did it give?
Answer: 1.0

same assay, conditions: mitochondria of 06STD024 ZtSDHC3 deletion mutant; mean of three ± SD

Question: `Cn1cc(C(=O)Nc2ccc(F)cc2-c2ccc(Cl)c(Cl)c2)c(C(F)F)n1` [Bixafen] was tested. Which IC50 did it give?
Answer: 1.3 ± 0.2 nM
